From PubChem BioAssay (NCI)
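Assay format: 96-well plates, 48-hour exposure. GI50 is the concentration that inhibits growth by half. TGI: total growth inhibition.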

What was measured:
Assay in all cases: growth of human tumour cells (NCI), 48 h
[1] = system: 786-0 renal
[2] = system: A498 renal
[3] = system: A549 NSCLC
[4] = system: ACHN renal
[5] = system: BT-549 breast
[6] = system: CAKI-1 renal
[7] = system: COLO 205 colon
[8] = system: DU-145 prostate
[9] = system: EKVX NSCLC
[10] = system: HCC-2998 colon
[11] = system: HCT-116 colon
[12] = system: HCT-15 colon
[13] = system: HL-60(TB) leukemia
[14] = system: HOP-62 NSCLC
[15] = system: HOP-92 NSCLC
[16] = system: HS 578T breast
[17] = system: HT29 colon
[18] = system: IGROV1 ovarian
[19] = system: K-562 leukemia
[20] = system: KM12 colon
[21] = system: LOX IMVI melanoma
[22] = system: M14 melanoma
[23] = system: MALME-3M melanoma
[24] = system: MCF7 breast
[25] = system: MDA-MB-231 breast
[26] = system: MDA-MB-435
[27] = system: MOLT-4 leukemia
[28] = system: NCI-H23 lung
[29] = system: NCI-H460 lung
[30] = system: NCI-H522 lung
[31] = system: NCI/ADR-RES ovarian
[32] = system: OVCAR-3 ovarian
[33] = system: OVCAR-4 ovarian
[34] = system: OVCAR-5 ovarian
[35] = system: OVCAR-8 ovarian
[36] = system: PC-3 prostate
[37] = system: RPMI-8226 leukemia
[38] = system: RXF 393 renal
[39] = system: SF-268 CNS
[40] = system: SF-295 CNS
[41] = system: SF-539 CNS
[42] = system: SK-MEL-2 melanoma
[43] = system: SK-MEL-28 melanoma
[44] = system: SK-MEL-5 melanoma
[45] = system: SK-OV-3 ovarian
[46] = system: SN12C renal
[47] = system: SNB-19 CNS
[48] = system: SNB-75 CNS
[49] = system: SR leukemia
[50] = system: SW-620 colon
[51] = system: T-47D breast
[52] = system: TK-10 renal
[53] = system: U251 CNS
[54] = system: UACC-257 melanoma
[55] = system: UACC-62 melanoma
[56] = system: UO-31 renal
[57] = system: CCRF-CEM leukemia
[58] = system: NCI-H226 lung

`c1ccc(-c2nn(-c3ccccc3)[n+](-c3cccc4ccccc34)n2)cc1` gave a GI50 [1] of 5.1 µM, a TGI [1] of 29.3 µM and a GI50 [2] of 2.91 µM. The TGI [2] was 33.8 µM, the GI50 [3] was 2.65 µM and the TGI [3] was greater than 100 µM. It also gave a GI50 [4] of 12 µM, a TGI [4] greater than 100 µM and a GI50 [5] of 1.85 µM. The TGI [5] was 17.9 µM, the GI50 [6] was 37.1 µM and the TGI [6] was greater than 100 µM. It also gave a GI50 [7] of 0.313 µM, a TGI [7] of 1.28 µM and a GI50 [8] of 4.26 µM. The TGI [8] was greater than 100 µM, the GI50 [9] was 0.583 µM and the TGI [9] was 33.3 µM. It also gave a GI50 [10] of 1.91 µM, a TGI [10] of 14.8 µM and a GI50 [11] of 0.708 µM. For the same compound, the TGI [11] was 17.9 µM, the GI50 [12] was 31.5 µM and the TGI [12] was greater than 100 µM. For the same compound, the GI50 [13] was 0.386 µM, the TGI [13] was 2.06 µM and the GI50 [14] was 1.39 µM. For the same compound, the TGI [14] was 33.2 µM, the GI50 [15] was 1.15 µM and the TGI [15] was 7.68 µM. The GI50 [16] was 1.77 µM, the TGI [16] was greater than 100 µM and the GI50 [17] was 0.918 µM. The TGI [17] was 15.1 µM, the GI50 [18] was 1.59 µM and the TGI [18] was 40.8 µM. It also gave a GI50 [19] of 0.608 µM, a TGI [19] of 16.1 µM and a GI50 [20] of 0.701 µM. It also gave a TGI [20] of 11.3 µM, a GI50 [21] of 1.23 µM and a TGI [21] greater than 100 µM. The GI50 [22] was 3.09 µM, the TGI [22] was 23.1 µM and the GI50 [23] was 0.333 µM. The TGI [23] was 1.13 µM, the GI50 [24] was 0.335 µM and the TGI [24] was 10.6 µM. For the same compound, the GI50 [25] was 0.787 µM, the TGI [25] was 12.9 µM and the GI50 [26] was 0.961 µM. The TGI [26] was 2.67 µM, the GI50 [27] was 1.3 µM and the TGI [27] was 15.8 µM. For the same compound, the GI50 [28] was 0.994 µM, the TGI [28] was 12.8 µM and the GI50 [29] was 1.43 µM. The TGI [29] was 10.4 µM, the GI50 [30] was 0.979 µM and the TGI [30] was 10.9 µM. For the same compound, the GI50 [31] was greater than 100 µM, the TGI [31] was greater than 100 µM and the GI50 [32] was 1.11 µM. The TGI [32] was 19.1 µM, the GI50 [33] was 0.394 µM and the TGI [33] was 12.4 µM. The GI50 [34] was 4.78 µM, the TGI [34] was 63.2 µM and the GI50 [35] was 1.85 µM. For the same compound, the TGI [35] was 54.5 µM, the GI50 [36] was 0.583 µM and the TGI [36] was greater than 100 µM. For the same compound, the GI50 [37] was 0.472 µM, the TGI [37] was greater than 100 µM and the GI50 [38] was 2.24 µM. The TGI [38] was 31.4 µM, the GI50 [39] was 2.04 µM and the TGI [39] was 20.5 µM. The GI50 [40] was 2.69 µM, the TGI [40] was 26.6 µM and the GI50 [41] was 2.33 µM. The TGI [41] was 27.7 µM, the GI50 [42] was 2.92 µM and the TGI [42] was 12 µM. For the same compound, the GI50 [43] was 2.36 µM, the TGI [43] was 13.9 µM and the GI50 [44] was 0.674 µM. For the same compound, the TGI [44] was 4.1 µM, the GI50 [45] was 4.61 µM and the TGI [45] was greater than 100 µM. The GI50 [46] was 2.45 µM, the TGI [46] was greater than 100 µM and the GI50 [47] was 2.01 µM. For the same compound, the TGI [47] was greater than 100 µM, the GI50 [48] was 1.94 µM and the TGI [48] was 14.8 µM. It also gave a GI50 [49] of 0.644 µM, a TGI [49] of 7.93 µM and a GI50 [50] of 1.44 µM. For the same compound, the TGI [50] was 15.9 µM, the GI50 [51] was 0.825 µM and the TGI [51] was 17.4 µM. It also gave a GI50 [52] of 8.53 µM, a TGI [52] of 73.6 µM and a GI50 [53] of 0.967 µM. The TGI [53] was greater than 100 µM, the GI50 [54] was 0.48 µM and the TGI [54] was 8.18 µM. For the same compound, the GI50 [55] was 1.14 µM, the TGI [55] was 3.59 µM and the GI50 [56] was 14 µM. It also gave a TGI [56] greater than 100 µM.
In the case of `CCOC(=O)C1=C(C)NC(=O)NC1c1coc2cc(C)cc(C)c2c1=O` (centres undefined), the TGI [1] is reported as greater than 100 µM, the TGI [2] is reported as greater than 100 µM and the TGI [3] is reported as greater than 100 µM. It also gave a TGI [4] greater than 100 µM, a TGI [5] greater than 100 µM and a TGI [6] greater than 100 µM. The TGI [57] was greater than 100 µM, the TGI [7] was greater than 100 µM and the TGI [8] was greater than 100 µM. For the same compound, the TGI [9] was greater than 100 µM, the TGI [11] was greater than 100 µM and the TGI [12] was greater than 100 µM. The TGI [13] was greater than 100 µM, the TGI [14] was greater than 100 µM and the TGI [15] was greater than 100 µM. For the same compound, the TGI [16] was greater than 100 µM, the TGI [17] was greater than 100 µM and the TGI [18] was greater than 100 µM. For the same compound, the TGI [19] was greater than 100 µM, the TGI [20] was greater than 100 µM and the TGI [21] was greater than 100 µM. It also gave a TGI [22] greater than 100 µM, a TGI [23] greater than 100 µM and a TGI [24] greater than 100 µM. The TGI [25] was greater than 100 µM, the TGI [26] was 45.4 µM and the TGI [27] was greater than 100 µM. The TGI [58] was greater than 100 µM, the TGI [28] was greater than 100 µM and the TGI [29] was greater than 100 µM. For the same compound, the TGI [30] was 14.5 µM, the TGI [31] was greater than 100 µM and the TGI [32] was greater than 70.5 µM. It also gave a TGI [33] greater than 100 µM, a TGI [34] greater than 100 µM and a TGI [35] greater than 100 µM. It also gave a TGI [36] greater than 100 µM, a TGI [37] greater than 100 µM and a TGI [38] greater than 100 µM. The TGI [39] was greater than 100 µM, the TGI [40] was greater than 100 µM and the TGI [41] was greater than 100 µM. It also gave a TGI [42] of 99.5 µM, a TGI [43] greater than 100 µM and a TGI [44] greater than 100 µM. It also gave a TGI [45] greater than 100 µM, a TGI [46] greater than 100 µM and a TGI [47] greater than 100 µM. The TGI [48] was greater than 100 µM, the TGI [49] was greater than 79.8 µM and the TGI [50] was greater than 100 µM. For the same compound, the TGI [51] was greater than 100 µM, the TGI [52] was greater than 100 µM and the TGI [53] was greater than 100 µM. The TGI [54] was greater than 100 µM, the TGI [55] was greater than 100 µM and the TGI [56] was greater than 100 µM.
